According to patent US20240180895A1, “USE OF KAPPA OPIOID RECEPTOR AGONISTS TO TREAT CARDIOVASCULAR DISEASE” (Board of Supervisors of Louisiana State University and …, priority 2021, published 2024):

Tests used:
[1] = system: conscious Sprague-Dawley rats; experiment: Acute cardiovascular and renal excretory studies with ICV or IV norBNI pretreatment (Example 4); type: in vivo, rat; conditions: for Total urine output: difelikefalin 10 μg/kg or nalfurafine 5 μg/kg IV, 90 min; for Urine osmolality / Urine potassium concentration [K+] / Urine sodium concentration [Na+]: total 90-min urine
Protocol: Male Sprague-Dawley rats (Envigo Labs, Indianapolis, IN) were individually housed, allowed tap water and standard rodent diet ad libitum, and kept under a 12-hour light-dark cycle. Rats used in these experiments weighed between 300 and 350 grams and were randomly assigned to experimental groups. All procedures were conducted in accordance with the National Institutes of Health guidelines for the care and use of animals and approved by the Louisiana State University Health Sciences Center Institutional Animal Care and Use Committee.
Aseptic technique was adhered to for all surgeries and detailed surgical methods were followed as previously described.^14 Briefly, 3-5 days before experimentation, rats requiring central ventricle access for administration of drug/vehicle into the brain were anesthetized with ketamine and xylazine and a stainless-steel cannula was stereotaxically implanted into the right lateral cerebral ventricle.^14
On the morning of the experiment, rats were anesthetized and maintained with inhaled 2% isoflurane, and polyethylene catheters were surgically placed into the left femoral artery, left femoral vein, and urinary bladder.^15.16 Following surgery, rats were placed in an elevated restrainer for recovery and collection of urine from an indwelling bladder catheter.^15 After completion of experimental protocols, rats were anesthetized with isoflurane and decapitated.
During stabilization of cardiovascular and renal excretory parameters, rats received an isotonic saline infusion (55 μl/min), which lasted throughout the duration of the experiment. To record mean arterial pressure (MAP) and heart rate (HR), arterial catheters were connected to a pressure transducer (MLT0670, ADInstruments, Sydney, Australia), which was connected to Powerlab 8/30 (ADInstruments) and visualized using LabChart software (v8.1.5; ADInstruments). After one hour of recovery from surgery, rats were pretreated with the KOR antagonist norBNI or isotonic saline vehicle through either an intracerebroventricular (ICV) catheter or intravenous (IV) catheter. […] Next, drug or vehicle (isotonic saline) was injected into the femoral vein and urine samples were collected every 10 minutes during a 90-minute experimental period. The following drug concentrations were used: nalfurafine 5 μg/kg, difelikefalin 10 μg/kg, norBNI 30 mg/kg (IV), norBNI 1 μg/5 μL (ICV). All groups are n=6. Urine sodium and potassium were measured using a flame photometer (model 943; Instrumentation Laboratories, Lexington, MA). Urine volume was measured gravimetrically, and urine osmolality was measured using a vapor pressure osmometer (model 5600; WESCOR, Logan, UT).
All results are expressed as mean±SEM. For determining statistically different changes at time points within a treatment group, means were compared to the control value using 2-way ANOVA with repeated measures and a post hoc Dunnett test following confirmation of a significant F value. For statistically different changes at individual time points between treatment groups, mean values were compared using 2-way ANOVA with repeated measures and a post hoc Sidak test following confirmation of a significant/value. For means between groups for total urine output, urine sodium concentration, urine potassium concentration, and urine osmolality, a Student/test was used. Statistical significance was characterized as P<0.05 and statistics were performed on Prism 7.05 software (GraphPad Software, Inc, San Diego, CA).

Sprague-Dawley rats = experiment: Reversal of oral furosemide diuretic resistance by oral nalfurafine (FIG. 17); type: in vivo, rat; conditions: nalfurafine 150 μg/kg oral added from day 7
Protocol: Male Sprague-Dawley rats were placed in individual metabolic cages in a room with 12-hour automatic light on/off control and allowed tap water and rodent chow ad libitum. Over the next two (2) days (control period), rats were administered vehicle (5% NaOH; 1 M PBS) orally (gavage) in the morning (9:00 am) and afternoon (2:00 pm) and urine was collected for 5-hours after the first oral treatment. […] This was repeated for 8 consecutive days (experimental period).

[2] = system: spontaneously hypertensive rats; experiment: Chronic oral nalfurafine, radiotelemetry blood pressure (FIG. 18); type: in vivo, rat; conditions: nalfurafine 0.5 mg/kg oral once per day for 5 weeks
Protocol: (§1) Male spontaneously hypertensive rats (SHR; Charles Rivers) were single housed and allowed tap water and standard rodent diet ad libitum. All procedures and experiments were conducted in accordance with the National Institutes of Health guidelines for the care and use of animals.
(§2) Radiotelemetry transmitters (Data Sciences International, St. Paul, MN) were implanted into SHR for chronic recording of blood pressure and heart rate and followed as previously published.^56 Briefly, rats were anesthetized and maintained on 2% isoflurane and the right femoral artery was surgically exposed. The transmitter catheter was inserted into the femoral artery and advanced until reaching the abdominal aorta. The site exposing the femoral artery was sutured and rats were allowed 1 week of recovery. Telemetry data was analyzed using Ponemah software (DSI, St. Paul, MN).
Spontaneously hypertensive rats were orally administered (gavage) nalfurafine (0.5 mg/kg) or vehicle (water) once per day for 5 weeks following recovery from radiotelemetry transmitter insertion. Blood pressure was recorded once per week and the 12:00-14:00 time frame was plotted.
(§3) All results are expressed as mean±SEM. Statistically different changes for both experimental protocols were determined using 2-way ANOVA with repeated measures and were considered statistically different following a significant/value for an interaction between experimental group and time. Statistical significance was determined as P<0.05, and statistics were performed on Prism 7.05 software (GraphPad Software, Inc, San Diego, CA).

[3] = system: spontaneously hypertensive rats; experiment: Chronic subcutaneous infusion of nalfurafine, radiotelemetry blood pressure (FIG. 19); type: in vivo, rat
Protocol: as §1, §2
In a separate cohort, spontaneously hypertensive rats were administered a subcutaneous nalfurafine infusion (0.3 mg/day) or vehicle (isotonic saline) using an osmotic pump (2ML4; Alzet) for 4 weeks. For the insertion of the osmotic pumps, rats were anesthetized and maintained under 2% isoflurane, a small incision was made at the nape, and the osmotic pump was inserted between the scapulae. The incision was sutured, and rats were returned to their home cages. Blood pressure was recorded throughout the entirety of the experiment and the 20:00-22:00 time frame was plotted.
as §3

[4] = in rats; cited from earlier work
hemodialysis patients = conditions: nearly 4000 hemodialysis patients (Kozono, Yoshitani, et al., 2018); cited from earlier work
[5] = ICV norBNI (1 μg/5 μL) pretreatment
[6] = IV norBNI (30 mg/kg) pretreatment
[7] = subcutaneous infusion 0.3 mg/day, 30 days

Structure (SMILES): CN(C(=O)/C=C/c1ccoc1)[C@@H]1CC[C@@]2(O)[C@H]3Cc4ccc(O)c5c4[C@@]2(CCN3CC2CC2)[C@H]1O5 [nalfurafine, Nalfurafine]
- Effect on MAP [1, 5]: prevented the decrease in MAP
- Total urine output [1, 5]: 4.72 ± 0.41 mL
- Urine osmolality [1, 5]: 358.5 ± 30.6 mmol/kg
- Urine potassium concentration [K+] [1, 5]: 12.77±3.99 μeq/mL
- Urine sodium concentration [Na+] [1, 5]: 82.33±7.74 μeq/mL
- Total urine output ([1]; ICV vehicle (5 μL) pretreatment): 8.37 ± 0.40 mL
- Effect on HR ([1]; ICV vehicle pretreatment): slight but statistically significant increase in HR
- MAP peak Δ ([1]; ICV vehicle pretreatment, peak at 60 min (difelikefalin), 50 min (nalfurafine)): −6 mmHg
- Urine osmolality ([1]; ICV vehicle pretreatment): 164 ± 8.09 mmol/kg
- Urine potassium concentration [K+] ([1]; ICV vehicle pretreatment): 8.19±2.15 μeq/mL
- Urine sodium concentration [Na+] ([1]; ICV vehicle pretreatment): 37.78±5.35 μeq/mL
- Effect on HR [1, 6]: did not produce any change in HR
- MAP peak Δ ([1]; IV norBNI (30 mg/kg) pretreatment, 80-minute peak for difelikefalin): abolished
- Total urine output [1, 6]: 5.03 ± 0.39 mL
- Urine osmolality [1, 6]: 439.2 ± 24.02 mmol/kg
- Urine potassium concentration [K+] [1, 6]: 10.94±1.09 μeq/mL
- Urine sodium concentration [Na+] [1, 6]: 109.1±7.85 μeq/mL
- Total urine output ([1]; IV vehicle (2 cc/kg) pretreatment): 9.37 ± 0.42 mL
- Effect on HR ([1]; IV vehicle pretreatment): did not produce any change in HR
- Urine osmolality ([1]; IV vehicle pretreatment): 148.7 ± 4.4 mmol/kg
- Urine potassium concentration [K+] ([1]; IV vehicle pretreatment): 5.49±0.68 μeq/mL
- Urine sodium concentration [Na+] ([1]; IV vehicle pretreatment): 32.56±3.05 μeq/mL
- Effect on established diuretic resistance to furosemide (Sprague-Dawley rats): able to treat or rescue the diuretic resistance
- Diastolic blood pressure and heart rate vs vehicle [2]: no significant interaction between treatment over time for diastolic blood pressure or heart rate
- Mean arterial pressure vs vehicle ([2]; 12:00-14:00 time frame): significantly lower mean arterial pressure at the 3-week time point
- Systolic blood pressure vs vehicle ([2]; 12:00-14:00 time frame): significantly lower in the nalfurafine group compared to vehicle at 3, 4, and 5 weeks
- Decrease in systolic, diastolic, and mean arterial pressure ([3]; 1 day of subcutaneous nalfurafine infusion 0.3 mg/day, 20:00-22:00 time frame): ~20 mmHg
- Heart rate vs vehicle [3, 7]: significantly lower heart rate than the vehicle treated group on day 9, day 16-22, and day 25-30
- Systolic, diastolic, mean arterial pressure and heart rate over time [3, 7]: did not demonstrate an increase in these parameters
- Half-life [4]: ~6 h
- Dysphoric adverse effects (hemodialysis patients): did not cause the typical dysphoric adverse effects
